Reference: US20210284615A1, “VORTIOXETINE ANALOGUE AND USE AND PREPARATION THEREOF” (priority 2016, published 2021)
“And” between values parts separate entries of the source, which are not always exact repeats. Equal entries are not always repeated. Where two headings read alike, the source gives them in different places.

Legend:
[1] = human, cited from earlier work
SLC6A4 = target: T1, SLC6A4 (Homo sapiens, UniProt P31645); assay: [3H]5-hydroxytryptamine (5-HT) reuptake inhibition in CHO cells transfected with pcDNA3.1-SLC6A4-His; format: cell-based; details: 25 nM [3H]5-hydroxytryptamine, 30 min
T1 construct: host or cells: CHO cells (Chinese hamster ovary, Cat #CCL-61), transient transfection with FuGENE HD
Experimental: SLC6A4 gene from plasmid Pcmv6-XL4-SLC6A4 (Origene, Cat #SC119478) was amplified by PCR (polymerase chain reaction), and a HIS tag was added to the C terminal, and then inserted into pcDNA3.1 (−) vector at 5′EcoR1 and 31-lind111 restriction enzyme cutting sites to build pcDNA3.1-SLC6A4-His.
CHO cells in logarithmic growth period (Chinese hamster ovary cells, Institute of Cell Biology, Chinese Academy of Sciences, Cat #CCL-61) were collected and counted. The cells were resuspended in F-12 culture media (Gibco, Cat #11330-032) and inoculated on a 96-well plate with 100 μL (20000 cells/well) per well. It was incubated in 5% CO2 incubator (relative humidity 100%) at 37° C. for 24 h.
The above modified plasmids (0.48 μg) were diluted with Opti-MEM culture medium (25 μL, Gibco, Cat #11058021), and blew gently to mix homogenously. […]
Compound 1 and vortioxetine were respectively diluted to 1 mM with Opti-MEM culture medium, then diluted 10 times per 4 times gradient, and then added to the transfected cell wells by 20 μL/well (the corresponding concentrations were 100 μM-0.0004 μM, in total of 10 concentration points, the concentration ratio between each concentration point was 4, each concentration included 3 parallel wells). […] 50 μL of lysed cell fluid was taken, and 200 μL of scintillation solution was added thereto, and reading was conducted with MicroBeta2. […]

[2] = Test of blood drug level in rats; format: in vivo, SD rats; details: for Blood drug level: intragastric, Vortioxetine 20 mg/kg (rats A1-A4), Compound 3 22.8 mg/kg (rats B1-B4), individual rats, in ng/mL (unit assumed)
Experimental: SD rats (male, 180-220 g, Experimental Animal Center, Chongqing Medical University) were randomly divided into groups with 4 rats per group. Food was prohibited, but not water, for 8 hours before administration.
Blood samples were collected from the orbital venous plexus at 0, 1, 2, 4, 6, 8 h after administration, wherein at least 0.3 ml was taken at each time point, and heparin was used for anticoagulant. The obtained whole blood (200 μl) was added to acetonitrile (800 LA, vortexed and shaken for 1 min, and then centrifuged for 10 min at 12000 rpm. The supernatant was taken and kept at −20° C., and the blood drug level of the supernatant was determined by LC/MS/MS. The data for each animal in groups are as follows: […]

KM mice = assay: Forced swimming test in mice; format: in vivo; details: 20 mg/kg oral gastric lavage, 1 hour after administration, last 4 min of 6 min swim
Experimental: KM mice (male, 38-42 g, Experimental Animal Center, Chongqing Medical University) were randomly divided into groups with 6 mice per group. After fasted for 4 h, the mice were placed in a glass cylinder with a diameter of 18 cm, height of 40 cm, water depth of 15 cm (water temperature 25° C.) to swim for 6 min, then dried with a warm air blower. The animals in each experiment group were administrated a solution of corresponding agent (Oral administration of gastric lavage, 20 mg/kg) according to the table below. After 1 hour of administration, the mice were placed in a glass cylinder with a diameter of 18 cm, height of 40 cm, water depth of 15 cm (water temperature 25° C.) to swim for 6 min. The swimming of the mice was recorded within 6 min by a camera system, and the data were automatically collected and analyzed by Noldus software. The quiescent time during swimming was recorded and counted within the last 4 min (for the experiment method, see THE JOURNAL OF PHARMACOLOGY AND EXPERIMENTAL THERAPEUTICS (2012), Vol. 340, No. 3: 666-675).

[3] = 2 h after oral 20 mg/kg, male Listar Hooded rats; cited from earlier work
[4] = Determination of lipid-water partition coefficient; format: physicochemical
Experimental: Vortioxetine hydrobromide (6 mg) and Compound 3 (6 mg) were dissolved respectively in a mixed solution composed of a pH 7.4 of phosphate buffer (3 ml) and n-octyl alcohol (3 ml), and the mixture was allowed to stand for 3 hours at 37° C. The concentration of each compound in water phase and oil phase was respectively determined, and calculated by logP=[…]log (Coil/Cwater). The results are as follows: logPvortioxetine=2.1; logPcompound 3=2.7.

[5] = tested on: 5-HTP induced head-twitch model; assay: Head-twitch test in mice (5-HTP induced); format: in vivo, KM mice; details: 20 mg/kg intraperitoneal injection, then 200 mg/kg 5-HTP, within 0-10 min
Experimental: KM mice (male, 18-22 g, Experimental Animal Center, Chongqing Medical University) were randomly divided into 6 mice per group. According to the below table, the animals in each experiment group were administrated a solution of corresponding agent, and then 200 mg/kg 5-HTP (5-hydroxytryptophan). The effects of vortioxetine and Compound 3 on the frequency of head-twitch of mice within 0-10 min were determinate (see [i]Brit. J. Pharmacol. (1963), 20, 106-120 for detailed experiment methods).

[6] = oral administration; cited from earlier work
[7] = Test of brain concentration and plasma concentration; format: in vivo, KM mice; details: male, KM, mouse, Compound 1 23.6 mg/kg
Experimental: KM mice (male, 18-22 g, Experimental Animal Center, Chongqing Medical University) were randomly divided into groups with 6 mice per group. In accordance with the table below, the animals in each group were respectively injected intravenously with equal moles of vortioxetine (20 mg/kg) and Compound 1 (23.6 mg/kg). Samples of blood and brain tissue of the mouse were taken at 1 and 2 hours after injection. The concentrations of vortioxetine and Compound 1 in blood plasma and brain tissue were respectively measured, and the ratios (concentration in brain tissue/concentration in blood plasma) were calculated.

T1 sequence (P31645 whole entry): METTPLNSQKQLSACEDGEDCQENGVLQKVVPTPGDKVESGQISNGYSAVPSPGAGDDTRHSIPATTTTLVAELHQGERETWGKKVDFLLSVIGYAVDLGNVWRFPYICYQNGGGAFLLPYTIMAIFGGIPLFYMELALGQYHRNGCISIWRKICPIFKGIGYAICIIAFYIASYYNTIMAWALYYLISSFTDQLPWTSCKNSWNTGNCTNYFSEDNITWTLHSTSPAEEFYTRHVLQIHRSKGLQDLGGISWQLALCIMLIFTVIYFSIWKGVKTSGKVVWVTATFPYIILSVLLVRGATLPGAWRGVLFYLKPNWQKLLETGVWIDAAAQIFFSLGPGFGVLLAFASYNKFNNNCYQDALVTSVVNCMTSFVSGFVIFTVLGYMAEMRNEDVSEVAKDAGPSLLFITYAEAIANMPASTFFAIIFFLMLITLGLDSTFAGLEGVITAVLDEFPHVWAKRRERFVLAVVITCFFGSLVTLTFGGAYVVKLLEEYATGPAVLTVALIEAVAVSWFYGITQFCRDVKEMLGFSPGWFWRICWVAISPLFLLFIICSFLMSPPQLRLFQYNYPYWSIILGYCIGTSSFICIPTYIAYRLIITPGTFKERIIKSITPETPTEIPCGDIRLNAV

For `Cc1cc(C(=O)O)ccc1Sc1ccccc1N1CCNCC1` [LUAA34443], which “share of LUAA34443 and LUAA34443 glucuronide together” value ([1]; oral 14C-vortioxetine free base 50 mg, one combined value for both metabolites) is on record?
The value was 44%.

What does the source list for `Cc1cc(C(F)(F)F)ccc1Sc1ccccc1N1CCNCC1` [Compound 1, 1-[2-(2-methyl-4-trifluoromethylphenylthio)phenyl]piperazine]?
IC50 (SLC6A4): 231 nM; melting point: 206 to 208 °C

For `Cc1ccc(Sc2ccccc2N2CCNCC2)c(C)c1` [Vortioxetine], which Blood drug level ([2]; 0 h) is on record?
The Blood drug level was 0.

And the Blood drug level ([2]; 1 h)?
Its Blood drug level is 48.59 and 163.07 and 183.96 and 256.56.

What about the Blood drug level ([2]; 2 h) of the same compound?
Its Blood drug level is 85.335 and 149.685 and 164.88 and 195.125.

What about the Blood drug level ([2]; 4 h) of the same compound?
Its Blood drug level is 34.54 and 90.305 and 94.53 and 164.845.

And the Blood drug level ([2]; 6 h)?
The Blood drug level was 17.095 and 47.74 and 40.91 and 72.6.

And the Blood drug level ([2]; 8 h)?
The Blood drug level was 7.13 and 6.76 and 23.35 and 26.315.

And the IC50 (SLC6A4)?
The IC50 was 267 nM.

What about the “parent drug share in plasma” value ([1]; 4 hours after oral 14C-vortioxetine free base 50 mg) of the same compound?
The value was “about 8%”.

And the Quiescent time (KM mice)?
The Quiescent time was 136 ± 37 s.

And the “distribution concentration in brain” value [3]?
Its value is 2.77 µg/g.

What about the “distribution concentration in kidney” value [3] of the same compound?
Its value is 10.3 µg/g.

What about the “distribution concentration in liver” value [3] of the same compound?
The value was 22.3 µg/g.

What about the “distribution concentration in lung” value [3] of the same compound?
Its value is 15.5 µg/g.

What about the logP at 3 h ([4]; n-octyl alcohol / pH 7.4 phosphate buffer, pH 7.4 phosphate buffer / n-octyl alcohol, 3 hours at 37° C., read-out: logP (lipid-water partition coefficient)) of the same compound?
Its logP at 3 h is 2.1.

And the Number of head-twitch [5]?
The Number of head-twitch was 56 ± 10.

What about the bioavailability [6] of the same compound?
Its bioavailability is “about 75%”.

What about the Kp at 1 h ([7]; brain/plasma, 1 hour after intravenous injection, vortioxetine 20 mg/kg, read-out: Concentration ratio in brain tissue and plasma) of the same compound?
The Kp at 1 h was 60.2 ± 8.64.

And the Kp at 2 h ([7]; brain/plasma, 2 hours after intravenous injection, vortioxetine 20 mg/kg, read-out: Concentration ratio in brain tissue and plasma)?
The Kp at 2 h was 44.6 ± 13.1.

And the concentration at 1 h ([7]; brain, 1 hour after intravenous injection, equal moles: vortioxetine 20 mg/kg, read-out: Concentration in brain tissue)?
Its concentration at 1 h is 15400 ± 1400 ng/g.

What about the concentration at 2 h ([7]; brain, 2 hours after intravenous injection, vortioxetine 20 mg/kg, read-out: Concentration in brain tissue) of the same compound?
Its concentration at 2 h is 7490 ± 560 ng/g.

What about the concentration at 1 h ([7]; plasma, 1 hour after intravenous injection, vortioxetine 20 mg/kg, read-out: Blood drug level) of the same compound?
The concentration at 1 h was 261 ± 53.5 ng/mL.

And the concentration at 2 h ([7]; plasma, 2 hours after intravenous injection, vortioxetine 20 mg/kg, read-out: Blood drug level)?
The concentration at 2 h was 167 ± 49.5 ng/mL.

For `Br.Cc1cc(C(F)(F)F)ccc1Sc1ccccc1N1CCNCC1` [Compound 3, 1-[2-(2-methyl-4-trifluoromethylphenylthio)phenyl] piperazine hydrobromide], which Blood drug level ([2]; 0 h, hydrobromide) is on record?
The Blood drug level was 0.815 and 2.195 and 1.62 and 0.975.

What about the Blood drug level ([2]; 1 h, hydrobromide) of the same compound?
The Blood drug level was 458.925 and 276.675 and 351.38 and 412.775.

What about the Blood drug level ([2]; 2 h, hydrobromide) of the same compound?
The Blood drug level was 587.71 and 237.72 and 441.03 and 648.63.

And the Blood drug level ([2]; 4 h, hydrobromide)?
Its Blood drug level is 726.37 and 181.565 and 334.54 and 297.135.

What about the Blood drug level ([2]; 6 h, hydrobromide) of the same compound?
The Blood drug level was 421.06 and 139.79 and 230.075 and 159.715.

What about the Blood drug level ([2]; 8 h, hydrobromide) of the same compound?
Its Blood drug level is 386.805 and 37.895 and 109.47 and 78.5.

And the “blood drug levels compared with equal moles of vortioxetine” value ([2]; oral, all time points)?
Its value is “higher”.

And the Quiescent time (KM mice)?
The Quiescent time was 107 ± 31 s.

And the logP at 3 h ([4]; pH 7.4)?
Its logP at 3 h is 2.7.

What about the melting point of the same compound?
The melting point was 170 to 172 °C.

And the Number of head-twitch [5]?
Its Number of head-twitch is 45.0 ± 29.0.
